In patent US10208007B2, “Use of strigolactones and strigolactone analogs for treating proliferative conditions” (The State of Israel, Ministry of Agriculture & Rural …, priority 2011, dated 2019):
Values joined by “and” are separate entries in the source; they are usually repeats but may differ in a detail not shown here. Equal entries are not always repeated.

Columns and labels:
MCF10A = settings: 3 days
Experimental: Results are presented as Average±SD of replicate analyses and are either representative of, or inclusive of at least two independent experiments. Statistical analyses were performed using student's t-test (2-tailed, paired) versus vehicle controls and are regarded as being significant when P<0.05(*). Higher powers (p<0.01, p<0.001) are also employed and indicated in each figure legend. IC50 doses for strigolactone analogs were calculated by interpolation of the sigmoidal dose response curves (Graphpad Prism 4.0 software). Briefly, linear regression was performed between relevant y-axis data points and interpolation calculated for x-axis unknowns.
Cells were seeded into a 96 well plates at 1500 cells per well (MCF-10, PC3, DU145, MDA-MB-231, MDA-MB-436, HT-29, SW480), 1000 cells per well (K562) or 4000 cells per well (MCF-7, HCT116) in triplicate in normal growing media (with the exception of K562, a non-adherent leukemic cell line which was seeded in phenol-free DMEM supplemented with 10% charcoal-stripped FBS). The following day media was replaced with phenol-free DMEM supplemented with 10% charcoal stripped FBS and the indicated final concentrations of strigolactone analog or vehicle (acetone) alone. Cells were incubated for 3 days, at which time XTT (2,3,-bis(2-methoxy-4-nitro-5-sulfophenyl)-5-[(phenylamino)-carbonyl]-2H-tetrazolium inner salt) reduction was used to quantify viability according to manufacturer's instruction (ATCC). Cells were incubated with XTT reagent for 2-3 hours at 37° C. in a humidified 5% CO2-95% air atmosphere. Absorbance was recorded by a photometer [sequence]luor Plus, Tecan (Salzburg, Austria) at 450 nm with 750 nm of reference wavelength. Cell survival was estimated from the equation: % cell survival=100×(At−Ac), where At and Ac are the absorbencies (450 nm) of the XTT colorimetric reaction (ATCC) in treated and control cultures respectively minus non-specific absorption measured at 750 nm. Absorbance of medium alone was also deducted from specific readings.
MCF-10A cells were included as an example of a non-tumorigenic line. XTT viability assays were carried out in the presence of the indicated doses of strigolactone analogs following 3 days of treatment. Resulting differences in absorbance readings following strigolactone analogs treatment reflect changes in proliferation and cell survival (FIG. 7A-C): Cells were seeded into 96 well plates in normal growing media. The following day media was replaced with phenol-free DMEM supplemented with 10% charcoal-stripped serum and the indicated doses of strigolactone analog or vehicle (cont.) alone. Viability was assayed after 3 days (XTT, ATCC).

MCF-7 mammospheres = test: cells; assay type: cell-based, human; settings: for Mammosphere numbers (>100 μM), percentage of vehicle treated control: 5 days; for viability at 5 ppm: Homo sapiens, MCF7, read-out: XTT viability of dissociated mammospheres; for Mammosphere morphology: 2.5-5 ppm, after 48 hours
Experimental: Given the similar effects the other strigolactone analogs had on breast cancer cell line growth compared to GR-24, we anticipated that the strigolactone analogs would also have similar effects on MCF-7 primary mammosphere formation (FIG. 10): MCF-7 cells were seeded in MEBM media into low attachment, 96 well plates in duplicate at 3000 cells per well. The same day the indicated doses of strigolactone analogs were added. After 7 days representative images were taken. […] Like GR-24, the doses required to inhibit mammosphere formation are lower than that required to inhibit proliferation in monolayer cultures (5 fold lower; ST-362 and MEB-55, 3 fold lower; ST-357). To determine if the sensitivity to strigolactone analogs treatments was specific to mammosphere formation or whether it extended to the integrity and survival of mature mammospheres, MCF-7 mammospheres were grown in the absence of strigolactone analogs and after 7 days (or once mammospheres had reached a mean diameter of over […]), strigolactone analogs were added to the growth media (FIG. 10) at the indicated doses. MCF-7 cells were seeded in MEBM media into low attachment, 96 well plates in duplicate at 3000 cells per well and primary mammospheres left to grow for 7 days. At which time the indicated doses of strigolactone analogs were added to the media. FIG. 11A is a representative image of mammospheres treated with 5 ppm concentrations, showing dissociation after 2 days of exposure to strigolactone analogs. […] Following […] treatment, mammospheres were monitored visually after 24 and 48 hours. No changes were observed following 24 hours of strigolactone analogs treatment. […] At 5 ppm concentrations EG-5, EG-9C, ST-357, ST-362 and MEB-55 reduce mammosphere numbers from 86.7+6.8 (vehicle control) to 23+5, 38+6.2, 6+2, 8.3+3.5 and 9.3+1.5%, respectively. At 2.5 ppm concentrations, mammosphere numbers were reduced to 35+6.9 (EG-5), 52+12.3 (EG-9C), 22+8.5 (ST-357), 6+1.7 (ST-362) and 20.7+8.6 (MEB-55). […] XTT viability assays were also carried out on dissociated mammospheres. At concentrations of 5 ppm, EG-5, ST-362 and MEB-55 reduced viability to 3.7+0.5, 25.5+8.8 and 4.6+1.1% respectively.

HT-29 = test: XTT viability assay; assay type: cell-based, human; settings: HT-29, 3 days
Experimental: (§1) Viability was assayed after 3 days (XTT, ATCC). IC50 concentrations are indicated (Table 3 above).

U20S = test: XTT viability assay; assay type: cell-based, human; settings: 3 days
Experimental: as §1

T47D = test: XTT viability assay; assay type: cell-based, human; settings: 3 days
Experimental: as §1

HCT116 = test: XTT viability assay; assay type: cell-based, human; settings: HCT116, 3 days
Experimental: as §1

MCF-7 = test: XTT viability assay; assay type: cell-based, human; settings: MCF-7, 3 days
Experimental: as §1

MDA-MB-231 = test: XTT viability assay; assay type: cell-based, human; settings: for IC50 at 72 h: MDA-MB-231, 3 days
Experimental: as §1

SW480 = test: XTT viability assay; assay type: cell-based, human; settings: SW480, 3 days
Experimental: as §1

K562 = test: XTT viability assay; assay type: cell-based, human; settings: K562, 3 days
Experimental: as §1

LNCaP = test: XTT viability assay; assay type: cell-based, human; settings: 3 days
Experimental: as §1

DU145 = test: XTT viability assay; assay type: cell-based, human; settings: DU145, 3 days
Experimental: as §1

PC3 = test: XTT viability assay; assay type: cell-based, human; settings: PC3, 3 days
Experimental: as §1

CYCB1 = test: Gene transcription level by quantitative PCR: CYCB1; assay type: in vivo, Arabidopsis thaliana; settings: for CYCB1 transcription level versus controls: 3 μM
Experimental: Seeds of homozygous lines of Arabidopsis thaliana wild type (WT; Columbia; Col-0) and max2-1 mutant (http://abrc.osu.edu/) were surface-sterilized and germinated on 1/2 Murashige and Skoog (MS) plates supplemented with 1% sucrose and solidified with 0.7% agar. Plates were incubated vertically in the dark at 4° C. for two days to synchronize germination. Three days after germination, seedlings were gently transferred using forceps to 1/2 MS plates containing various concentrations of GR-24 as a mixture of four diastereomers: (±)-GR-24 and (±)-2'-epi-GR-24. The root tip of the transferred seedling was marked on the plates. The plates remained unsealed to prevent accumulation of gases (e.g., ethylene), and were positioned in an upright 45° position, and incubated at 22° C. with a light intensity of […] photons m-2 s-1 provided by white fluorescent tubes and under a photoperiod of 16 hours exposure to light/8 hours in the dark for 6-12 days. GR-24 treatments were conducted at concentrations ranging from 2.7×10^-6 to 13.5×10^-6 M. […] GR-24, ST-357 and ST-362 were initially dissolved in acetone to give a 4.5 mM, 10 μM and 10 μM solutions, respectively, which were then further diluted with double-distilled sterile water (DDW). […] In each of the experiments, non-treated roots were compared to the respective acetone control. Where no difference was observed between the various controls, non-treated roots are shown. Where differences were recorded between non-treated and acetone controls, the comparison was made between GR-24, ST-357 and ST-362-treated and acetone-treated roots. RNA was extracted from seedlings grown and treated as described in Example 1. Quantitative PCR was performed by amplifying fragments of genes of interest (Tables 6 & 7). Arabidopsis 15S ribosomal RNA (GenBank accession no. AT1G04270.1) served as the reference gene for the amount of RNA, and was amplified using specific primers (forward) [NT] and (reverse) [NT]. The experiment was performed in 5-6 biological replicates; each replicate included 8 plants, on which 3 technical repeats were performed. Means and standard error were determined from all biological replicates. Primers were designed using PrimerQuest software (Integrated DNA Technologies). RNA was extracted using Trizol (Invitrogen, Carlsbad, Calif., USA) using the manufacturer's protocol. 1 μg RNA was reverse-transcribed in a total volume of 20 μl using the Superscript First strand cDNA synthesis kit (Invitrogen). PCR was performed in triplicate using an ABI-Prism 7900 instrument (Applied Biosystems, Foster City, Calif.) and SYBR Green I detection (Applied Biosystems) according to the manufacturer's protocol. The expression of each target gene was normalized to the expression of GAPDH RNA and is presented as the ratio of the target gene to GAPDH RNA, expressed as 2-ΔCt, where Ct is the threshold cycle and ΔCt=[NT] GAPDH.

[1] = 5 ppm, vehicle control 86.7+6.8

Row | SMILES | IC50 at 72 h (MCF10A) | Mammosphere numbers (>100 μM), percentage of vehicle treated control (MCF-7 mammospheres; 2.5 ppm) | Mammosphere numbers (>100 μM), percentage of vehicle treated control (MCF-7 mammospheres; [1]) | viability at 5 ppm (MCF-7 mammospheres) | IC50 at 72 h (HT-29) | IC50 at 72 h (U20S) | IC50 at 72 h (T47D) | IC50 at 72 h (HCT116) | IC50 at 72 h (MCF-7) | IC50 at 72 h (MDA-MB-231) | IC50 at 72 h (SW480) | IC50 at 72 h (K562) | IC50 at 72 h (LNCaP) | IC50 at 72 h (DU145) | IC50 at 72 h (PC3) | CYCB1 transcription level versus controls (CYCB1; WT seedlings) | Mammosphere morphology (MCF-7 mammospheres) | other results
1 | CC1=CC(O/C=C2\Cc3c(n(C)c4ccccc34)C2=O)OC1=O (racemic) [EG-5, (±) (2E)-4-methyl-2-(4-methyl-5-oxo-2,5-dihydrofuran-2-yloxymethylene)-1,4-dihydro-2H-cyclopenta[b]indol-3-one] | >15 ppm | 35+6.9% | 23+5% | 3.7% | >15 ppm | 3.9 ppm | 8.8 ppm | >15 ppm | 17.5 ppm | 7.5 ppm | >15 ppm | >15 ppm | 13 ppm | >15 ppm | >15 ppm | – | – | –
2 | CC1=CC(O/C=C2/C(=O)c3c(c4cc(-c5scc6c5OCCO6)ccc4n3C)C2C)OC1=O (centres unmarked) [ST-362, (2E)-2-[(2,5-dihydro-4-methyl-5-oxofuran-2-yloxy)methylene]-1,2-dihydro-7-(2,3-dihydrothieno[3,4-b][1,4]dioxin-7-yl)-1,4-dimethyl-cyclopenta[b]indole-3-(4H)-one] | >15 ppm | 6+1.7% | 8.3+3.5% | – | 7.3 ppm | 2.8 ppm | 8.6 ppm | 6.0 ppm | 8.1 ppm | 2.9 ppm | 2.9 ppm | 4.3 ppm | 9.8 ppm | 7.5 ppm | >15 ppm | 0.008 ± 0.007 | exhibited a looser morphology and appeared to be dissociating | IC20 concentration (MDA-MB-231; MDA-231, XTT): 1.5 ppm
3 | CC1=CC(O/C=C2\Cc3c(n(C)c4cc(-c5cccs5)ccc34)C2=O)OC1=O (racemic) [MEB-55, (±) 2E-4-methyl-2-(4-methyl-5-oxo-2,5-dihydrofuran-2-yloxymethylene)-6-thiophen-2-yl-1,4-dihydro-2H-cyclopenta[b]indol-3-one] | >15 ppm | 20.7 ± 8.6% | 9.3+1.5% | 4.6% | 8.2 ppm | 2.7 ppm | 5.0 ppm | 12.8 ppm | >12.8 ppm | 3.9 ppm | 9.7 ppm | 8.1 ppm | 12 ppm | 12.8 ppm | 8.8 ppm | – | exhibited a looser morphology and appeared to be dissociating | –
4 | CC1=CC(O/C=C2/C(=O)c3c(c4cc(-c5cccs5)ccc4n3C)C2C)OC1=O (centres unmarked) [ST-357, (2E)-1,4-dimethyl-2-((4-methyl-5-oxo-2,5-dihydrofuran-2-yloxy)methylene)-7-(thiophen-2-yl)-1,2-dihydrocyclopenta[b]indol-3(4H)-one] | >15 ppm | 22+8.5% | 6+2% | – | >15 ppm | 4.5 ppm | >10 ppm | >15 ppm | >20 ppm | 5.0 ppm | >15 ppm | >15 ppm | 14.4 ppm | >15 ppm | 5.3 ppm and 5.4 ppm | 0.460 ± 0.362 | exhibited a looser morphology and appeared to be dissociating | –
5 | CC1=C[C@H](O/C=C2/C(=O)O[C@@H]3c4ccccc4C[C@H]23)OC1=O (relative stereo) [GR-24, (3aR*,8bS*,E)-3-(((R*)-4-methyl-5-oxo-2,5-dihydrofuran-2-yloxy)methylene)-3,3a,4,8b-tetrahydro-2H-indeno[1,2-b]furan-2-one] | – | – | – | – | – | – | – | – | – | – | – | – | – | – | – | 0.008 ± 0.003 | – | CYCB1 transcription level versus controls (CYCB1; max2-1 seedlings): 0.211 ± 0.078; CYCB1 transcription relative to controls (CYCB1; root tips, 2.7 μM): 0.97±0.47; CYCB1 transcription in comparison to controls (CYCB1; root tips, 13.5 μM): 0.16±0.00
